Entries after “also recorded” stand apart in the source; their conditions may differ. Where two headings read alike, the source gives them in different places.
How the values were obtained:
[1] = 28-day once weekly oral repeated-dose DRF TK study in Beagle dogs (mesylate salt), plasma; format: in vivo; conditions: for AUC / Cmax: both sexes, Beagle, dog, plasma, po
Procedure: The objective of the study was to determine the TK profile of Compound 1 following 4 weekly oral administrations to Beagle dog and to assess reversibility of any changes following a 13-day recovery period.
The test item Compound 1 (mesylate salt) was administered in 4 weekly doses by oral gavage to groups of Beagle dogs (n=2/sex/group) at dose levels of 10, 15, and 20 mg/kg bodyweight per week. A suspension of 0.5% methylcellulose (w/v) in sterile water served as vehicle. Blood samples for PK analysis were collected for each dosing day (Day 1, 8, 15, and 22) at pre-dose, 0.25, 0.5, 1, 2, 4, 6, 8, 12, and 24 hours after administration.
Total plasma concentrations of Compound 1 were analyzed using a qualified LC-MS/MS method.
Dosing at 15 mg/kg/adm was limited to 2 weekly doses, since animals were subjected to necropsy investigation 3 days after the second dose (Day 8) in order to investigate possible macroscopic changes during the treatment period. n.d.: not determined. AUC parameters were calculated using GraphPad Prism version 9.

PC cells = test: Anti-proliferative assay, five day treatment, CellTiter-Glo; format: cell-based; conditions: growth inhibition
Excerpt: The amount of cells remaining at the end of the treatment was estimated by CellTiter-Glo (Promega).
Many of the cell lines in this subset had deficiencies in the Rb1 and p53 tumor suppressor pathways.

[2] = 5-day daily oral repeated-dose pilot study in Beagle dogs (mesylate salt); format: in vivo; conditions: for Tmax / Cmax / half-life: both sexes, Beagle, dog, plasma, po
Procedure: The objective of the study was to determine the TK profile of Compound 1, following its daily administration through oral gavage for 5 consecutive days to Beagle dogs. Compound 1 (mesylate salt) was administered daily to groups of dogs (n=2/sex/group) by oral gavage (PO) for 5 consecutive days at doses of 1.5 and 2 mg/kg/day. The vehicle was 0.5% (w/v) methylcellulose in sterile water. For TK evaluation blood samples were collected from each dog on Days 1 and 5 at the following timepoints relative to dosing: pre-dose, 15 min, 30 min, as well as 1, 2, 4, 6, 8, 12, and 24 hours post-dose.

LNCaP cells = test: Cell cycle distribution with siRNA-mediated knock-down of Rb and p53; format: cell-based; conditions: LNCaP treated with Rb/p53 siRNA, 24 h
Procedure: Top panel: Cell cycle distribution in LNCap cells treated with siRNA (2 bars on the right) in comparison to control LNCaP cells without siRNA treatment (2 bars in the middle), in the absence (−) or presence (+) of Compound 1 for 24 h at the indicated concentration. For comparison, DU-145 cells harboring a combined Rb1 and p53 loss-of-function are included (2 bars on the left). Lower panel: Western blot analysis according to the same experimental conditions as given for the top panel.
In in vitro studies using LNCaP PC cells, harboring wild-type Rb and p53 genes, the effect of Compound 1 on the cell cycle was investigated in the absence and presence of siRNA-mediated knock-down of Rb and p53 gene expression. […] This effect is hypothesized to be due to Compound 1-mediated perturbation of the interaction between p300 and DDR factors and subsequent impact on the late cell cycle checkpoints and the DDR leading to cell death.

[3] = Plasma protein binding, equilibrium dialysis; format: in vitro ADME, cynomolgus monkey; conditions: monkey plasma, 37° C, buffer pH 7.4; read-out: Fraction unbound (Fu), Mean
Procedure: Protein binding of Compound 1 to the plasma from several species, i.e., human, cynomolgus monkey, dog, rat, and mouse was investigated in vitro by incubation in plasma and determination of unbound fraction of Compound 1 using equilibrium dialysis. Compound 1 was incubated in 100% species-specific plasma and added to one side of the membrane in an equilibrium dialysis system while buffer (pH 7.4) is added to the other side. The system was allowed to reach equilibrium at 37° C. Compound concentration on both sides of the membrane is measured by liquid chromatography—tandem mass spectroscopy (LC-MS/MS).

PR6512 = PR6512 mouse PDX prostate cancer model, daily oral; format: in vivo
Excerpt: FIG. 7B the efficacy of Compound 1 in the in vivo mouse PDX prostate cancer model PR6512. […] QD: once daily treatment. po: per os.
Again, an effect of the body weight was detected in all treatment groups (including the vehicle group).

[4] = 10 mg/kg, 10 mg/kg weekly, Day 1
[5] = 10 mg/kg, 10 mg/kg weekly, Day 8
[6] = 10 mg/kg, 10 mg/kg weekly, Day 15
[7] = 10 mg/kg, 10 mg/kg weekly, Day 22
[8] = 15 mg/kg, 15 mg/kg weekly, Day 1
[9] = 15 mg/kg, 15 mg/kg weekly, Day 8

CC(C)C[C@@H]1NCCN([C@@H](CC(C)C)C(=O)N2CCC3(C[C@@H]2C)OCC(CN2CCCC2)CO3)C1=O (stereo partly drawn) [Compound 1, (S)-3-isobutyl-1-((S)-4-methyl-1-((S)-8-methyl-3-(pyrrolidin-1-ylmethyl)-1,5-dioxa-9-azaspiro[5.5]undecan-9-yl)-1-oxopentan-2-yl)piperazin-2-one]
clinical signs ([1]; 15 mg/kg/adm, limited to 2 oral doses (Days 1 and 8)): reduced food and water intake | AUC [1, 4]: 1720 ng·h/mL | Cmax [1, 4]: 536 ng/mL | AUC [1, 5]: 1590 ng·h/mL | Cmax [1, 5]: 512 ng/mL | AUC [1, 6]: 1660 ng·h/mL | Cmax [1, 6]: 497 ng/mL | AUC [1, 7]: 1170 ng·h/mL | Cmax [1, 7]: 360 ng/mL | AUC [1, 8]: 2630 ng·h/mL | Cmax [1, 8]: 752 ng/mL | AUC [1, 9]: 2300 ng·h/mL | Cmax [1, 9]: 506 ng/mL | AUC ([1]; 20 mg/kg, Day 1): 3010 ng·h/mL | Cmax ([1]; 20 mg/kg, Day 1): 994 ng/mL | tolerability ([1]; single oral administration of 20 mg/kg/adm, 20 mg/kg): serious adverse event (SAE) on day 5; also recorded: not tolerated in one female Beagle dog | tolerability ([1]; weekly oral for 4 consecutive weeks at 10 mg/kg/adm): tolerated | IC50 values (PC cells): nanomolar range | Total AUC (AUC(0-inf)) ([2]; 1.5 mg/kg, Day 1): 116 ng·h/mL | Total AUC (AUC(0-inf)) ([2]; 1.5 mg/kg, Day 5): 213 ng·h/mL | Total AUC ([2]; 2 mg/kg, Day 1): 173 ng·h/mL | Total AUC ([2]; 2 mg/kg, Day 5): 270 ng·h/mL | Tmax ([2]; 1.5 mg/kg): ~0.5 h | Cmax ([2]; 1.5 mg/kg, Day 1): 25.4 ng/mL | half-life ([2]; 1.5 mg/kg, Day 1, read-out: elimination half-life (converted)): 4.5 h | Cmax ([2]; 1.5 mg/kg, Day 5): 44.6 ng/mL | half-life ([2]; 1.5 mg/kg, Day 5, read-out: elimination half-life (converted)): 6.2 h | Cmax ([2]; 2 mg/kg, Day 1): 33.6 ng/mL | Tmax ([2]; 2 mg/kg, Day 1): ~0.4 h | half-life ([2]; 2 mg/kg, Day 1, read-out: T1/2 (converted)): 4.7 h | Cmax ([2]; 2 mg/kg, Day 5): 32.3 ng/mL | Tmax ([2]; 2 mg/kg, Day 5): ~2.1 h | half-life ([2]; 2 mg/kg, Day 5, read-out: T1/2 (converted)): 8.6 h | tolerability ([2]; daily oral for 5 consecutive days at 1.5 mg/kg/day): well-tolerated | cell cycle response (LNCaP cells): increase of cells in the S-phase | fraction unbound [3]: 0.602 | tumor growth (PR6512; 3 mg/kg QD): complete block of tumor growth | tumor growth (PR6512; 1, 1.5, 2, and 3 mg/kg daily oral): dose dependent growth inhibition of tumors | PSA in blood (PR6512; PR6512): effective PSA reduction

Reference: US12611406B2, “Oxopiperazine derivatives for the treatment of cancer” (Inthera Bioscience AG, priority 2020, dated 2026)
